From PMC9395488, “First-in-human study of IM156, a novel potent biguanide oxidative phosphorylation (OXPHOS) inhibitor, in patients with advanced solid tumors” (Investigational New Drugs, 2022)

Test system: patients with advanced solid tumors
Assay: First-in-human phase 1 dose-escalation study: safety, DLTs, adverse events
Type: in vivo
From the text: This multicenter first-in-human dose-escalation phase 1 study (clinicaltrials.gov identifier: NCT03272256) was designed to determine the MTD or RP2D and to evaluate the safety and tolerability of IM156. Secondary endpoints included PK characteristics, efficacy assessment (objective response rate [ORR], disease control rate [DCR], duration of response [DoR] and progression-free survival [PFS]). Furthermore, exploratory objectives included identification and profiling of IM156 metabolites, evaluations of exploratory PD markers of IM156, and evaluations of any potential relationship between putative biomarkers and safety/efficacy parameters of IM156. The study was conducted in accordance with Good Clinical Practice, the International Council for Harmonisation, and guidelines governing clinical study conduct and the ethical principles originating from the Declaration of Helsinki. The study was approved by each Institutional Review Board and patients provided written informed consent. Patients were enrolled at three sites in South Korea.
The initial dose and schedule of IM156 was chosen based on animal toxicology studies. […] IM156 was administered in the fasted state, with no food for at least 2 h before and 1 h after dosing.
Three DLT-evaluable patients were enrolled at each dose level. If there were no DLTs or other prohibitive adverse events (AEs), the Safety Committee was allowed to recommend escalation to the next highest dose level. If 1 DLT occurred in the first 3 DLT-evaluable patients, enrollment in that cohort was expanded to an additional 3 DLT-evaluable patients; if ≥ 2 DLTs were reported in a cohort, that dose was considered above the MTD.
Safety was assessed through vital signs, weight, laboratory assessments, physical examinations, electrocardiogram, and reporting of AEs as graded by the National Cancer Institute’s Common Terminology Criteria for Adverse Events v4.03 (NCI-CTCAE).
DLTs were defined as the following AEs if they were attributed as related to IM156: asymptomatic grade 4 neutropenia lasting for ≥ 5 days; febrile neutropenia, regardless of grade; grade 4 thrombocytopenia or grade 3 thrombocytopenia with bleeding; any grade ≥ 3 non-hematologic AE (except grade 3 hypertension and grade 3 nausea, vomiting or diarrhea for which proper measures for prevention and treatment were not implemented, and alopecia); blood lactate levels > 5 mmol; grade ≥ 2 AE prohibiting dosing of IM156 for ≥ 21 continuous days except for alterations in serum calcium or phosphorus levels. The safety analysis includes all patients who received at least one dose of study drug.
The safety population was defined as all patients who received at least one dose of IM156. The PK population was not defined in the protocol but included all patients with sufficient PK data to perform adequate PK modeling. The efficacy population included all patients who underwent at least one tumor imaging assessment while receiving IM156. Safety was assessed using descriptive statistics (e.g., DLTs, AEs, laboratory tests, physical examination, 12-lead ECG). The incidence and number of events were reported for the DLTs observed in Cycle 1 per dose group. […] Adverse events and TRAEs were standardized with the System Organ Class and the Preferred Term using the Medical Dictionary for Regulatory Activities v23.0. In addition, TEAEs, serious adverse events (SAEs), TEAE severity, and TEAEs leading to withdrawal were presented by dose group. Efficacy data were to be presented by Waterfall and Swim Lane plots. Time to event endpoints (e.g., DoR, PFS) were determined using Kaplan–Meier estimations with the median value for each endpoint summarized.

[1] = DL1 100 mg orally every other day (n=3)
[2] = DL2 200 mg orally every other day (n=3)

NC(=Nc1ccc(OC(F)(F)F)cc1)N=C(N)N1CCCC1 [IM156]
1: TEAE Abdominal pain, grade 2 (DL2 200 mg QOD (n=3)) | TEAE Alanine aminotransferase increased, grade 1 (DL2 200 mg QOD (n=3)) | TEAE Asthenia, grade 1 (DL2 200 mg QOD (n=3)) | TEAE Cough, grade 1 (DL2 200 mg QOD (n=3)) | TEAE Diarrhoea, grade 2 (DL2 200 mg QOD (n=3)) | TEAE Ileus, grade 3 (DL2 200 mg QOD (n=3)) | TEAE Nausea, grade 1 (DL2 200 mg QOD (n=3)) | TEAE Pleural effusion, grade 2 (DL2 200 mg QOD (n=3)) | TEAE Pyrexia, grade 1 (DL2 200 mg QOD (n=3)) | TRAE Decreased appetite, All grades (patients) (DL2 200 mg QOD oral, N = 3) | TRAE Diarrhoea, All grades (patients) (DL2 200 mg QOD oral, N = 3) | TRAE Insomnia, All grades (patients) (DL2 200 mg QOD oral, N = 3) | TRAE Nausea, All grades (patients) (DL2 200 mg QOD oral, N = 3) | TEAE Anaemia grade 2 [2] | TEAE Flank pain grade 2 [2] | TEAE Insomnia grade 2 [2] | TEAE Psychiatric disorders grade 2 [2] | TEAE Cough, grade 1 (DL3 400 mg QOD (n=3)) | TEAE Headache, grade 2 (DL3 400 mg QOD (n=3)) | TEAE Nausea, grade 1 (DL3 400 mg QOD (n=3)) | TEAE Neutrophil count decreased, grade 4 (DL3 400 mg QOD (n=3)) | TEAE Peripheral sensory neuropathy, grade 1 (DL3 400 mg QOD (n=3))
0: TEAE Psychiatric disorders grade 1 [1] | TEAE Psychiatric disorders grade 2 [1] | TEAE Psychiatric disorders grade 3 [1] | TEAE Psychiatric disorders grade 4 [1] | TEAE Purpura grade 1 [1] | TEAE Purpura grade 2 [1] | TEAE Purpura grade 3 [1] | TEAE Purpura grade 4 [1] | TEAE Urinary retention grade 1 [1] | TEAE Urinary retention grade 2 [1] | TEAE Urinary retention grade 3 [1] | TEAE Urinary retention grade 4 [1] | TEAE Urinary tract disorder grade 1 [1] | TEAE Urinary tract disorder grade 2 [1] | TEAE Urinary tract disorder grade 3 [1] | TEAE Urinary tract disorder grade 4 [1] | TRAE Abdominal Pain, > G3 (patients) (DL2 200 mg QOD oral, N = 3) | TRAE Abdominal Pain, All grades (patients) (DL2 200 mg QOD oral, N = 3) | TRAE Blood Lactic Acid increased, > G3 (patients) (DL2 200 mg QOD oral, N = 3) | TRAE Blood Lactic Acid increased, All grades (patients) (DL2 200 mg QOD oral, N = 3) | TRAE Constipation, > G3 (patients) (DL2 200 mg QOD oral, N = 3) | TRAE Constipation, All grades (patients) (DL2 200 mg QOD oral, N = 3) | TRAE Decreased appetite, > G3 (patients) (DL2 200 mg QOD oral, N = 3) | TRAE Diarrhoea, > G3 (patients) (DL2 200 mg QOD oral, N = 3) | TRAE Fatigue, > G3 (patients) (DL2 200 mg QOD oral, N = 3) | TRAE Fatigue, All grades (patients) (DL2 200 mg QOD oral, N = 3) | TRAE Insomnia, > G3 (patients) (DL2 200 mg QOD oral, N = 3) | TRAE Nausea, > G3 (patients) (DL2 200 mg QOD oral, N = 3) | TRAE Vomiting, > G3 (patients) (DL2 200 mg QOD oral, N = 3) | TEAE Adrenal insufficiency grade 1 [2] | TEAE Adrenal insufficiency grade 2 [2] | TEAE Adrenal insufficiency grade 3 [2] | TEAE Adrenal insufficiency grade 4 [2] | TEAE Anaemia grade 1 [2] | TEAE Anaemia grade 3 [2] | TEAE Anaemia grade 4 [2] | TEAE Appendicitis perforated grade 1 [2] | TEAE Appendicitis perforated grade 2 [2] | TEAE Appendicitis perforated grade 3 [2] | TEAE Appendicitis perforated grade 4 [2] | TEAE Back pain grade 1 [2] | TEAE Back pain grade 2 [2] | TEAE Back pain grade 3 [2] | TEAE Back pain grade 4 [2] | TEAE Cystitis grade 1 [2] | TEAE Cystitis grade 2 [2] | TEAE Cystitis grade 3 [2] | TEAE Cystitis grade 4 [2] | TEAE Dry skin grade 1 [2] | TEAE Dry skin grade 2 [2] | TEAE Dry skin grade 3 [2] | TEAE Dry skin grade 4 [2] | TEAE Flank pain grade 1 [2] | TEAE Flank pain grade 3 [2] | TEAE Flank pain grade 4 [2] | TEAE Hypertension grade 1 [2] | TEAE Hypertension grade 2 [2] | TEAE Hypertension grade 3 [2] | TEAE Hypertension grade 4 [2] | TEAE Hypotension grade 1 [2] | TEAE Hypotension grade 2 [2] | TEAE Hypotension grade 3 [2] | TEAE Hypotension grade 4 [2] | TEAE Insomnia grade 1 [2] | TEAE Insomnia grade 3 [2] | TEAE Insomnia grade 4 [2] | TEAE Pain in extremity grade 1 [2] | TEAE Pain in extremity grade 2 [2] | TEAE Pain in extremity grade 3 [2] | TEAE Pain in extremity grade 4 [2] | TEAE Pruritus grade 1 [2] | TEAE Pruritus grade 2 [2] | TEAE Pruritus grade 3 [2] | TEAE Pruritus grade 4 [2] | TEAE Psychiatric disorders grade 1 [2] | TEAE Psychiatric disorders grade 3 [2] | TEAE Psychiatric disorders grade 4 [2] | TEAE Purpura grade 1 [2] | TEAE Purpura grade 2 [2] | TEAE Purpura grade 3 [2] | TEAE Purpura grade 4 [2] | TEAE Urinary retention grade 1 [2] | TEAE Urinary retention grade 2 [2] | TEAE Urinary retention grade 3 [2] | TEAE Urinary retention grade 4 [2] | TEAE Urinary tract disorder grade 1 [2] | TEAE Urinary tract disorder grade 2 [2] | TEAE Urinary tract disorder grade 3 [2] | TEAE Urinary tract disorder grade 4 [2] | TRAE Abdominal Pain, > G3 (patients) (DL3 400 mg QOD oral, N = 3) | TRAE Abdominal Pain, All grades (patients) (DL3 400 mg QOD oral, N = 3)
2: TEAE Vomiting, grade 1 (DL2 200 mg QOD (n=3)) | TRAE Vomiting, All grades (patients) (DL2 200 mg QOD oral, N = 3) | TEAE Nausea, grade 2 (DL3 400 mg QOD (n=3)) | TEAE Vomiting, grade 1 (DL3 400 mg QOD (n=3))
